How the values were obtained:
Format in all cases: cell-based
[1] = tested on: Human d7 Cultured Dendritic Cells; assay: Flow cytometry phenotype analysis of human d7 cultured dendritic cells after 24 h stimulation; conditions: for HLA-DR MFI: 7 day DCs, 24 h stimulation
[2] = tested on: 6-7 day cultured human dendritic cells; assay: ELISA of cytokines (IL-12 p40, IL-12 p70, TNF-α) in 22 h induction supernatants of cultured human dendritic cells; conditions: for IL-12 p40 / IL-12 p70 / TNF-α: 22 Hrs
Source text: Recent articles have described how human dendritic cells can be derived in vitro from CD14 positive monocyte precursors in peripheral blood. A “buffy coat” preparation can now be commonly obtained from a unit of normal human peripheral blood from a blood bank on request. The leukocyte fraction was harvested from this buffy coat preparation using standard ficoll centrifugation techniques. Subsequently, the leukocyte fraction was labeled with anti-CD 14 antibody coupled to magnetic microbeads. This preparation was then passed over a magnet (Miltanyi Biotech) and CD14 positive monocytes were collected. These CD14 positive monocyte precursors were then cultured for 5-7 days in vitro (5×10^5 cells/ml) with GM-CSF (20 ng/ml) for the duration of the culture. […] After the 24 hour in vitro stimulation culture, cells were washed twice and stained with a panel of monoclonal antibodies specific for different cell surface activation and co-receptor molecules found on mature, activated DCs.
Supernatants from DCs stimulated with LPS, MPL® immunostimulant-S, RC-527, RC-529, and RC-544 were collected and tested by ELISA analysis for cytokines.

[3] = tested on: murine bone marrow derived DCs + D011.10 T cells; assay: APC function of ova-pulsed, lipid A potentiated murine DCs co-cultured with D011.10 T cells (cytokine ELISA)
Source text: These antigen pulsed, lipid A potentiated cells were then washed thoroughly and titered against ova-specific T cell effector cells in vitro at an APC: T cell ratio titration of 1:1 out to as high as 1:512. The effector T cells in this in vitro assay were the antigen naive, but antigen (ova) specific, MHC restricted I-A^d splenic T cells from transgenic D011.10 mice.
D011.10 TCR-transgenic mice were used in these experiments as donors of antigen specific naive T cells. In their germline DNA these mice contain rearranged TCR-Vα and -Vβ genes that encode a T cell receptor (TCR) specific for the ovalbumin peptide 323-339 bound to IA^d (Balb/c) Class II MHC molecules. The transgenic ova peptide specific TCR can be detected with the KJ1-26 monoclonal antibody (mAb) that binds only to this particular TCR heterodimer. These cells provide a ready source of “normal” antigen (ova)-specific effector T cells. Effective antigen-mediated APC stimulation of those T cells is generally measured by ELISA quantitation of IL-2 or IFN-γ in the culture supernatants of DC+D011.10 T cells after 24-48 hours of incubation.
In one experiment, murine bone marrow derived DCs (6 day cultures) were pulsed with ova (50 μg/ml-5×10^5 cells/ml) and then potentiated overnight with LPS(R595), MPL® immunostimulant-S, RC-527, RC-529 or RC-544 prior to being cultured together with naive D011.10 effector T cells (FIGS. 1-7). The APC function of these DCs as measured by their ability to stimulate IL-2, IFN-γ IL-12 (p70) and IL-12 (p40) secretion in the DC+D011.10 co-culture systems was analyzed. All of the data shown in FIGS. 1-7 was developed from DCs maintained in lipid A induction cultures for either 15 or 38 hours prior to use in the T cell assay.

[4] = tested on: cultured human DCs + autologous T cells
[5] = Exp. 091698, 24 h, LPS 10 ng/ml, others 100 ng/ml
[6] = Exp. 092398, 24 h, LPS 10 ng/ml, others 100 ng/ml
[7] = Exp. 093098, 24 h, LPS 10 ng/ml, others 100 ng/ml
[8] = Exp. # 092398, Day 7, LPS 10 ng/ml, others 100 ng/ml
[9] = Exp. # 093098, LPS 10 ng/ml, others 100 ng/ml

In the case of CCCCCCCCCCCCCC(=O)O[C@H](CCCCCCCCCCC)CC(=O)NCCO[C@@H]1O[C@H](CO)[C@@H](OP(=O)(O)O)[C@H](OC(=O)C[C@@H](CCCCCCCCCCC)OC(=O)CCCCCCCCCCCCC)[C@H]1NC(=O)C[C@@H](CCCCCCCCCCC)OC(=O)CCCCCCCCCCCCC.CCN(CC)CC [RC-529, 2-[(R)-3-Tetradecanoyloxytetradecanoylamino]ethyl 2-Deoxy-4-O-phosphono-3-O-[(R)-3-tetradecanoyoxytetradecanoyl]-2-[(R)-3-tetradecanoyoxytetradecanoylamino]-β-D-glucopyranoside triethylammonium salt], the “CD 1a % positive cells” value [1, 5] is reported as 94.3%, the “CD 1a MFI” value [1, 5] is reported as 9.29 and the “CD 4 % positive cells” value [1, 5] is reported as 77.0%. For the same compound, the “CD 4 MFI” value [1, 5] was 2.44, the “CD 14 % positive cells” value [1, 5] was 7.5% and the “CD 35 % positive cells” value [1, 5] was 47.6%. For the same compound, the “CD 35 MFI” value [1, 5] was 2.66, the “CD 40 MFI” value [1, 5] was 22.0 and the “CD 44 MFI” value [1, 5] was 285. The “CD 54 MFI” value [1, 5] was 28.2, the “CD 62 L % positive cells” value [1, 5] was 6.4% and the “CD 69 % positive cells” value [1, 5] was 4.4%. The “CD 80 % positive cells” value [1, 5] was 98.9%, the “CD 80 MFI” value [1, 5] was 6.19 and the “CD 83 % positive cells” value [1, 5] was 71.0%. The “CD 83 MFI” value [1, 5] was 2.89, the “CD 86 % positive cells” value [1, 5] was 98.7% and the “CD 86 MFI” value [1, 5] was 9.30. The “CD 95 % positive cells” value [1, 5] was 53.8%, the “CD 95 MFI” value [1, 5] was 1.12 and the “HLA-DR MFI” value ([1]; Exp. 091698, LPS 10 ng/ml, others 100 ng/ml) was 88.2. The “CD 1a % positive cells” value [1, 6] was 86.5%, the “CD 1a MFI” value [1, 6] was 5.47 and the “CD 4 % positive cells” value [1, 6] was 71.6%. For the same compound, the “CD 4 MFI” value [1, 6] was 2.65, the “CD 14 % positive cells” value [1, 6] was 4.2% and the “CD 35 % positive cells” value [1, 6] was 58.8%. The “CD 35 MFI” value [1, 6] was 2.92, the “CD 40 MFI” value [1, 6] was 31.5 and the “CD 54 MFI” value [1, 6] was 36.6. For the same compound, the “CD 62 L % positive cells” value [1, 6] was 11.1%, the “CD 69 % positive cells” value [1, 6] was 11.0% and the “CD 80 % positive cells” value [1, 6] was 99.1%. The “CD 80 MFI” value [1, 6] was 8.46, the “CD 83 % positive cells” value [1, 6] was 94.7% and the “CD 83 MFI” value [1, 6] was 3.32. For the same compound, the “CD 86 % positive cells” value [1, 6] was 99.9%, the “CD 86 MFI” value [1, 6] was 25.3 and the “CD 95 % positive cells” value [1, 6] was 90.4%. For the same compound, the “CD 95 MFI” value [1, 6] was 1.43, the “αC5aR + GAR Alexa % positive cells” value [1, 6] was 53.4% and the “CD 44 MFI” value ([1]; Exp. 092398, 24 h, LPS 10 ng/ml, others 100 ng/ml, values printed with a trailing +) was 442+. For the same compound, the “GAR-Alexa % positive cells” value ([1]; Exp. 092398, 24 h, secondary reagent staining, LPS 10 ng/ml, others 100 ng/ml) was 2.4%, the “HLA-DR MFI” value ([1]; Exp. 092398, LPS 10 ng/ml, others 100 ng/ml) was 158.8 and the “CCR 6 % positive cells” value [1, 7] was 5.3%. The “CD 1a % positive cells” value [1, 7] was 80.1%, the “CD 1a MFI” value [1, 7] was 6.51 and the “CD 3 % positive cells” value [1, 7] was 27.3%. For the same compound, the “CD 3 MFI” value [1, 7] was 3.87, the “CD 4 % positive cells” value [1, 7] was 77.9% and the “CD 4 MFI” value [1, 7] was 2.97. The “CD 11c % positive cells” value [1, 7] was 92.4%, the “CD 11c MFI” value [1, 7] was 6.82 and the “CD 14 % positive cells” value [1, 7] was 3.9%. The “CD 40 MFI” value [1, 7] was 26.1, the “CD 54 MFI” value [1, 7] was 36.4 and the “CD 62 L % positive cells” value [1, 7] was 3.4%. The “CD 80 % positive cells” value [1, 7] was 99.1%, the “CD 80 MFI” value [1, 7] was 10.7 and the “CD 83 % positive cells” value [1, 7] was 82.4%. For the same compound, the “CD 83 MFI” value [1, 7] was 3.38, the “CD 86 % positive cells” value [1, 7] was 99.7% and the “CD 86 MFI” value [1, 7] was 22.0. The “CD 123 % positive cells” value [1, 7] was 44.1%, the “CD 123 MFI” value [1, 7] was 1.90 and the “αC5aR + Alexa 488 % positive cells” value [1, 7] was 48.6%. For the same compound, the “αC5aR + Alexa 488 MFI” value [1, 7] was 10.4, the “HLA-DR MFI” value ([1]; Exp. 093098, LPS 10 ng/ml, others 100 ng/ml) was 161.5 and the “upregulation of HLA-DR expression (in words)” value ([1]; RC-529 compared with RC-544, all three experiments) was “slightly more effective”. For the same compound, the “stimulating the expression of HLA-DR and co-stimulatory molecules (in words)” value ([1]; RC-529 compared with RC-544, three experiments) was “very comparable effects”, the “IL-12 p40” value ([2]; Exp. # 091698, LPS 10 ng/ml, others 100 ng/ml) was 38,700 pg/mL/5 × 10^5 Cells and the “IL-12 p70” value ([2]; Exp. # 092398 (second line, Day7), LPS 10 ng/ml, others 100 ng/ml) was 215.3 pg/ml/5 × 10^5 Cells. The “IL-12 p40” value [2, 8] was 127,500 pg/mL/5 × 10^5 Cells, the TNF-α [2, 8] was 7,400 pg/mL/5 × 10^5 Cells and the “IL-12 p70” value ([2]; Exp. # 092398 as printed (first line of section), LPS 10 ng/ml, others 100 ng/ml) was 4.2 pg/ml/5 × 10^5 Cells. The “IL-12 p70” value ([2]; Exp. # 092398 as printed (third line of section), LPS 10 ng/ml, others 100 ng/ml) was 28.2 pg/ml/5 × 10^5 Cells, the “IL-12 p40” value [2, 9] was 60,700 pg/mL/5 × 10^5 Cells and the TNF-α [2, 9] was 372 pg/mL/5 × 10^5 Cells. For the same compound, the “IL-12 (p40) expression (in words)” value ([2]; all three experiments, LPS 10 ng/ml, others 100 ng/ml) was “also stimulated IL-12 (p40) responses”, the “IL-12 (p70) (in words)” value ([2]; the one donor in which LPS and MPL-S gave a significant amount) was “high levels of IL-12 (p70)” and the “TNF-α secretion (in words)” value ([2]; three donors) was “moderately lower than the effect due to RC-527”. The “IFN-γ release by D011.10 T cells (in words)” value ([3]; DCs precultured 38 hours, FIG. 3) was “very comparable to each other”, the “IL-2 secretion (in words)” value ([3]; DCs prestimulated 15 hours, all T cell:APC ratios, FIG. 1) was “comparable in their ability to stimulate IL-2 secretion” and the “IL-12 (p70) in DC+D011.10 co-cultures (in words)” value ([3]; FIG. 5) was “weakest ability”. The “release of IL-12 (p40) homodimer in DC+D011.10 co-cultures (in words)” value ([3]; FIG. 7) was “moderately less potent than either RC-544 or MPL® immunostimulant-S” and the “T cell proliferation / DC activation, CPM 3H-thymidine response (in words)” value [4] was “comparable in their effect and quantitatively higher than the background response”.

Reference: patent publication US20040033213A1, “Methods of modulating dendritic cells using adjuvants” (Corixa Corporation, priority 2002, published 2004)
